Measurements published in PMC7932537, “Quantitative profiling of protease specificity” (PLoS Computational Biology, 2021).

Tests used:
MMP-2 [1] = assay: Substrate phage display with NGS: relative probability (RP) of P3-P1' tetramer clusters; format: biochemical, human; conditions: MMP2;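 also: ratio of tetramer probability after protease selection to that in naive phage library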
MMP-2 [2] = target: T1, MMP-2 (Homo sapiens, UniProt P08253); assay: K(obs) of individual phage substrates (set of 1369); format: biochemical; conditions: MMP2
T1 sequence (P08253 110-660): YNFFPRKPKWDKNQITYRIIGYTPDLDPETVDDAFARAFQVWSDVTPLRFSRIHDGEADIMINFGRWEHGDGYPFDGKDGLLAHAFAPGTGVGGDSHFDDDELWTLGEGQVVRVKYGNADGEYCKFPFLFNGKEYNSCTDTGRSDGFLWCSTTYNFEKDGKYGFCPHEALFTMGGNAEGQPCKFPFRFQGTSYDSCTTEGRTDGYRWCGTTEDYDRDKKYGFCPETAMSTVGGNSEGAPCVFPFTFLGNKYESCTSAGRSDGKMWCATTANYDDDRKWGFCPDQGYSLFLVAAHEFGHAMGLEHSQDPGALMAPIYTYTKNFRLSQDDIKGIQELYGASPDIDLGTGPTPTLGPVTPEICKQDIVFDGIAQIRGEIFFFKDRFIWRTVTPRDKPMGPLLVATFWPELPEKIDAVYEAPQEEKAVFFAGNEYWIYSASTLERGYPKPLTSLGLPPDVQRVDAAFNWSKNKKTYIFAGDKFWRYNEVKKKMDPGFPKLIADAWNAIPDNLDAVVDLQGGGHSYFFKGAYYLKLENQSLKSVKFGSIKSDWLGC

MMP-9 = MMP-9 (Homo sapiens, UniProt P14780); assay: as above; format: biochemical; conditions: MMP9
[3] = RP of the P3-P1' tetramer contained in the substrate
[4] = individual phage substrate of the set of 1369 peptides, cleavage position marked by '-'
[5] = individual phage substrate of the set of 1369 peptides, dash in the sequence marks the cleavage position
[6] = RP of the P3-P1' tetramer contained in the substrate (substrate phage display with NGS)
[7] = individual phage substrates, set of 1369 peptides, cleavage position marked by hyphen in sequence
[8] = individual phage substrates, set of 1369 peptides, hyphen in sequence marks cleavage position

Sequence of MMP-9 (P14780 94-707): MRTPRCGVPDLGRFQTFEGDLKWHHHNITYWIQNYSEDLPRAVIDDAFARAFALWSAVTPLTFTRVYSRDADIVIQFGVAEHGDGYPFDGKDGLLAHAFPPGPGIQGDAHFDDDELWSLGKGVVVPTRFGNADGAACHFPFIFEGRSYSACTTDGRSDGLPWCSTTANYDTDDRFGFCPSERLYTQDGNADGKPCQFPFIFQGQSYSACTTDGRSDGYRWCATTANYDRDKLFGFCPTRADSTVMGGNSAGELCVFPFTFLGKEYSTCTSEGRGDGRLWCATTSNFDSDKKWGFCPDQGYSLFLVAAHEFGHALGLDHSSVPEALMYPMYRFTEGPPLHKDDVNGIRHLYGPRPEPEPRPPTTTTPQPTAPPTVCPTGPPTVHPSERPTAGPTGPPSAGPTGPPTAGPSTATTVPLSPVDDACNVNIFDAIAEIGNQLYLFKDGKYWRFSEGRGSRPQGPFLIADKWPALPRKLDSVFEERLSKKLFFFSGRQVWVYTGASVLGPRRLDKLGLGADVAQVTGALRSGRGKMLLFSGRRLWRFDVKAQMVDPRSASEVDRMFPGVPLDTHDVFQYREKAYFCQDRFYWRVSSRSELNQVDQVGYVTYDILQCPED

Substance | relative probability (RP) (MMP-2 [1]; [3]) | Kobs (MMP-2 [2]; [4]) [M⁻¹ s⁻¹] | Kobs (MMP-9; [5]) [M⁻¹ s⁻¹] | relative probability (RP) (MMP-2 [1]; [6]) | Kobs (MMP-2 [2]; [7]) [M⁻¹ s⁻¹] | Kobs (MMP-9; [8]) [M⁻¹ s⁻¹]
RTPIG-ITASG | 31.281 | 9740.44 | 12792.1 | – | – | –
WVMES-LTASG | 8.775 | 1660.66 | 386.839 | – | – | –
SGPQW-ITGTA | 28.1021 | 7815.03 | 12792.1 | – | – | –
KSPLG-LTASG | – | – | – | 35.3536 | 4470.66 | 10866.7
SGWAP-LLRTA | – | – | – | 23.9342 | 142.481 | 142.481
RAPLH-MTASG | 30.0095 | 2916.17 | 12792.1 | – | – | –
SGAHG-LLTTA | 23.6336 | 1112.44 | 142.481 | – | – | –
GRPRS-LTASG | 33.3704 | 12792.1 | 10866.7 | – | – | –
GQQMS-LRTAS | – | – | – | 0.2763 | 56.119 | 0
TFWGA-LTASG | 26.3441 | 10866.7 | 0 | – | – | –
QAPMG-LTASG | 34.7865 | 3438.54 | 9740.44 | – | – | –
SGPLG-IKSTA | – | – | – | 33.936 | 12792.1 | 12792.1
SYALH-LTASG | 14.6488 | 12792.1 | 3964.21 | – | – | –
RLPVH-YTASG | 23.3589 | 7815.03 | 12792.1 | – | – | –
WPHGS-LTASG | 19.9233 | 12792.1 | 0 | – | – | –
GVHFH-LITAS | 0.09413 | 0 | 0 | – | – | –
SQPHL-LTASG | – | – | – | 16.4802 | 1816.46 | 2097.28
SMGSH-LTASG | – | – | – | 4.2785 | 1154.21 | 0
SGPMR-LVTTA | – | – | – | 20.4124 | 1870.4 | 4205.91
GRVEL-LYTAS | – | – | – | 0 | 0 | 0
GNVRN-LITAS | – | – | – | 29.2567 | 12792.1 | 7386.83
AGPQP-LTASG | – | – | – | 30.3595 | 12792.1 | 12792.1
GDMRH-LSTAS | – | – | – | 14.413 | 1561.44 | 799.117
YDIHF-LTASG | 4.537 | 0 | 0 | – | – | –
GGSGA-LRVRG | 13.4712 | 1154.21 | 0 | – | – | –
FPVLS-LTASG | – | – | – | 10.8506 | 10866.7 | 6396.07
GHARS-LKTAS | – | – | – | 17.186 | 2916.17 | 1239.69

Substance | relative probability (RP) (MMP-2 [1]; [3]) | Kobs (MMP-2 [2]; [4]) [M⁻¹ s⁻¹] | Kobs (MMP-9; [5]) [M⁻¹ s⁻¹] | relative probability (RP) (MMP-2 [1]; [6]) | Kobs (MMP-2 [2]; [7]) [M⁻¹ s⁻¹] | Kobs (MMP-9; [8]) [M⁻¹ s⁻¹]
VFPMS-LTASG | 32.4868 | 12792.1 | 12792.1 | – | – | –
SGISF-MSVTA | – | – | – | 23.3965 | 836.403 | 0
PKGYA-LTASG | 0.5867 | 2615.58 | 3850.82 | – | – | –
YSATN-LTASG | – | – | – | 16.0897 | 12792.1 | 484.315
SGVNH-LMTTA | 12.8499 | 201.585 | 231.616 | – | – | –
AYGSH-LTASG | 4.2785 | 3253.29 | 654.784 | – | – | –
LTPRY-WTASG | – | – | – | 20.9965 | 5269.78 | 5461.43
YDSRG-LTASG | 6.164 | 1239.69 | 231.616 | – | – | –
TRIAY-LTASG | 27.9862 | 12792.1 | 3165.09 | – | – | –
TRLAH-VTASG | – | – | – | 11.7405 | 1660.66 | 0
GKVSE-LITAS | – | – | – | 24.0996 | 231.616 | 142.481
RLPWS-LTASG | 28.5684 | 5667.28 | 12792.1 | – | – | –
WKVSS-LTASG | – | – | – | 29.0891 | 10866.7 | 2218.08
GAWHN-MRTAS | – | – | – | 0 | 0 | 0
PYPVP-FTASG | 31.1155 | 12792.1 | 12792.1 | – | – | –
HDYFN-LTASG | – | – | – | 0 | 27.918 | 0
GSPMH-LITAS | – | – | – | 30.095 | 6688.74 | 9740.44
TSFRM-LTASG | – | – | – | 0.2112 | 0 | 0
QPLSW-VTASG | 11.7463 | 12792.1 | 4922.1 | – | – | –
LSVFW-LTASG | 13.7679 | 12792.1 | 12792.1 | – | – | –
SGARS-MRLTA | – | – | – | 12.2991 | 0 | 762.325
RPPLA-FTASG | 31.4142 | 7386.83 | 12792.1 | – | – | –
YLVRY-LTASG | – | – | – | 18.3724 | 9740.44 | 12792.1
SGAMG-LFRTA | 23.7576 | 142.481 | 619.843 | – | – | –
SGPKW-IIQTA | 22.5059 | 2687.73 | 12792.1 | – | – | –
VMYGN-LTASG | – | – | – | 24.0019 | 12792.1 | 619.843
